What follows are compounds tested against recombinant mTOR (FLAG-tagged, residues 1362-2549) (Homo sapiens, UniProt P42345) (assay: In vitro mTOR kinase assay (Test (a), AlphaScreen)). Conditions: ATP 20 μM, read-out: Test (a): IC50 versus mTOR kinase.
Assay type: biochemical
How it was run: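 AlphaScreen read-out: a phospho-T389 p70 S6K antibody on acceptor beads captures the phosphorylated biotin-peptide on donor beads, with signal loss indicating inhibition.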

Sequence of recombinant mTOR (FLAG-tagged, residues 1362-2549) (P42345 1362-2549): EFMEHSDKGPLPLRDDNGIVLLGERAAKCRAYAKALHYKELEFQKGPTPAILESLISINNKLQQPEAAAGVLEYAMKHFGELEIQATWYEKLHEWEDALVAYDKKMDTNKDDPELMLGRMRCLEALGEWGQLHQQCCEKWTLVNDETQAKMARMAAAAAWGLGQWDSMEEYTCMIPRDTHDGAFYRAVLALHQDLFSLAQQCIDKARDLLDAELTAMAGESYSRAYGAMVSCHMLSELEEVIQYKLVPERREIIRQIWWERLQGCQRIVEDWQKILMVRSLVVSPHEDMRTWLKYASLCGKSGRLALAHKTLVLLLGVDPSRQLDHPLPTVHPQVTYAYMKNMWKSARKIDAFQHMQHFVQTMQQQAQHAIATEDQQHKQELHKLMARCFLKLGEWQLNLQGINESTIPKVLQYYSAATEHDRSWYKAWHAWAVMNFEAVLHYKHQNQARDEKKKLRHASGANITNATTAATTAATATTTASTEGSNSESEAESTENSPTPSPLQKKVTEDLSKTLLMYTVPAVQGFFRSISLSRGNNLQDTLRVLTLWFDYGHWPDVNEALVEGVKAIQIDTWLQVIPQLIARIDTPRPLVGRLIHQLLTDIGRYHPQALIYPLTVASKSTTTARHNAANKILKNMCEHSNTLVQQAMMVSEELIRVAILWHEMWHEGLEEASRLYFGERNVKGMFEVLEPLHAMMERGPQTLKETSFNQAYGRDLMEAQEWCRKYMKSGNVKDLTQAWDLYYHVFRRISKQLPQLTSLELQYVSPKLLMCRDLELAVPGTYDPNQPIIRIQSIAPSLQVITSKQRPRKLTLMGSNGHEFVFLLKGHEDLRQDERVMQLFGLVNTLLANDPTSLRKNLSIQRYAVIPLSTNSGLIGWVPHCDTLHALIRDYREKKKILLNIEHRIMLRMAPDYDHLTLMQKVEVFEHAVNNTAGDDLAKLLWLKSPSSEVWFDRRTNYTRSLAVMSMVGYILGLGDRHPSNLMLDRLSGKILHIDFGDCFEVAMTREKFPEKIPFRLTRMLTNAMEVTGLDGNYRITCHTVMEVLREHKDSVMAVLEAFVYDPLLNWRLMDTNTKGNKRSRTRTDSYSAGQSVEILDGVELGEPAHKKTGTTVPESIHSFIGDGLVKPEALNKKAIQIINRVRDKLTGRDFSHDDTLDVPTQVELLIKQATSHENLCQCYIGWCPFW

Point of comparison: C[C@H]1COCCN1c1cc(CNC2CC2)nc(-c2ccc(NC(=O)Nc3ccccc3)cc2)n1 [Example 30b, 1-[4-[4-[(cyclopropylamino)methyl]-6-[(3S)-3-methylmorpholin-4-yl]pyrimidin-2-yl]phenyl]-3-phenyl-urea], IC50 180 nM. Against it:
- C[C@H]1COCCN1c1cc(CNC2CCN(C)CC2)nc(-c2ccc(NC(=O)Nc3ccccc3)cc2)n1 [Example 30c, 1-[4-[4-[(3S)-3-methylmorpholin-4-yl]-6-[[(1-methyl-4-piperidyl)amino]methyl]pyrimidin-2-yl]phenyl]-3-phenyl-urea] — 6.1-fold higher, 1100 nM
- C[C@H]1COCCN1c1cc(CN(C)C2CC2)nc(-c2ccc(NC(=O)Nc3ccccc3)cc2)n1 [Example 30d, 1-[4-[4-[(cyclopropyl-methyl-amino)methyl]-6-[(3S)-3-methylmorpholin-4-yl]pyrimidin-2-yl]phenyl]-3-phenyl-urea] — 1.6-fold higher, 280 nM
- C[C@H]1COCCN1c1cc(COC2CCN(C)CC2)nc(-c2ccc(NC(=O)Nc3ccccc3)cc2)n1 [Example 31, 1-[4-[4-[(3S)-3-Methylmorpholin-4-yl]-6-[(1-methyl-4-piperidyl)oxymethyl]pyrimidin-2-yl]phenyl]-3-phenyl-urea] — 1.9-fold higher, 350 nM
- COCc1cc(N2CCOC[C@@H]2C)nc(-c2ccc(NC(=O)Nc3ccccc3)cc2)n1 [Example 32, 1-[4-[4-(Methoxymethyl)-6-[(3S)-3-methylmorpholin-4-yl]pyrimidin-2-yl]phenyl]-3-phenyl-urea] — 29-fold lower, 6.2 nM
- CNC(=O)Nc1ccc(-c2nc(CS(=O)(=O)c3nccn3C)cc(N3CCOC[C@@H]3C)n2)cc1 [Example 33, 3-Methyl-1-[4-[4-[(1-methylimidazol-2-yl)sulfonylmethyl]-6-[(3S)-3-methylmorpholin-4-yl]pyrimidin-2-yl]phenyl]urea] — 4.7-fold higher, 840 nM
- CNC(=O)Nc1ccc(-c2nc(CS(=O)(=O)c3ccccc3Cl)cc(N3CCOC[C@@H]3C)n2)cc1 [Example 33a, 1-[4-[4-[(2-chlorophenyl)sulfonylmethyl]-6-[(3S)-3-methylmorpholin-4-yl]pyrimidin-2-yl]phenyl]-3-methyl-urea] — 3-fold lower, 60 nM
- CNC(=O)Nc1ccc(-c2nc(CS(=O)(=O)c3ccccc3OC)cc(N3CCOC[C@@H]3C)n2)cc1 [Example 33b, 1-[4-[4-[(2-methoxyphenyl)sulfonylmethyl]-6-[(3S)-3-methylmorpholin-4-yl]pyrimidin-2-yl]phenyl]-3-methyl-urea] — 2.7-fold lower, 66 nM
- CNC(=O)Nc1ccc(-c2nc(CS(=O)(=O)c3ncc[nH]3)cc(N3CCOC[C@@H]3C)n2)cc1 [Example 33c, 1-[4-[4-(1H-imidazol-2-ylsulfonylmethyl)-6-[(3S)-3-methylmorpholin-4-yl]pyrimidin-2-yl]phenyl]-3-methyl-urea] — 130-fold lower, 1.4 nM
- CNC(=O)Nc1ccc(-c2nc(CS(=O)(=O)c3ccc(N)cc3)cc(N3CCOC[C@@H]3C)n2)cc1 [Example 33d, 1-[4-[4-[(4-aminophenyl)sulfonylmethyl]-6-[(3S)-3-methylmorpholin-4-yl]pyrimidin-2-yl]phenyl]-3-methyl-urea] — 580-fold lower, 0.31 nM
- CNC(=O)Nc1ccc(-c2nc(CS(=O)(=O)c3ccccc3C)cc(N3CCOC[C@@H]3C)n2)cc1 [Example 33e, 3-methyl-1-[4-[4-[(3S)-3-methylmorpholin-4-yl]-6-[(2-methylphenyl)sulfonylmethyl]pyrimidin-2-yl]phenyl]urea] — 2-fold lower, 88 nM
- CNC(=O)Nc1ccc(-c2nc(CS(=O)(=O)c3ccccn3)cc(N3CCOC[C@@H]3C)n2)cc1 [Example 33f, 3-methyl-1-[4-[4-[(3S)-3-methylmorpholin-4-yl]-6-(pyridin-2-ylsulfonylmethyl)pyrimidin-2-yl]phenyl]urea] — 1.5-fold higher, 270 nM
- CNC(=O)Nc1ccc(-c2nc(CS(=O)(=O)c3nccs3)cc(N3CCOC[C@@H]3C)n2)cc1 [Example 33g, 3-methyl-1-[4-[4-[(3S)-3-methylmorpholin-4-yl]-6-(1,3-thiazol-2-ylsulfonylmethyl)pyrimidin-2-yl]phenyl]urea] — 8.6-fold lower, 21 nM

Source: patent US7750003B2, “Compounds-943” (AstraZeneca AB, priority 2006, dated 2010)
